{"source": "patent US20240342204A1", "about": "“METHOD OF TREATING VETERINARY VIRAL DISEASES” (Intervet Inc., priority 2021, published 2024)", "key": {"[1]": {"tested_on": "Feline Infectious Peritonitis Virus (FIPV) strain 79-1146", "experiment": "CPE antiviral assay for FIPV in Crandell-Rees Feline Kidney (CrFK) cells", "format": "cell-based"}, "[2]": {"tested_on": "feline infectious peritonitis (FIP) virus", "conditions": "tissue culture and experimental cat infection studies; cited from earlier work"}, "[3]": {"tested_on": "Porcine rotavirus A strain of serotype G5P7", "experiment": "Anti-porcine rotavirus immunofluorescent assay in MA-104 cells, strain G5P7", "format": "cell-based", "conditions": "MA104, 72 h, read-out: EC50, replication of porcine rotavirus reduced by half, G5P7 strain", "protocol": "(§1) Example 3 Anti-Porcine Rotavirus Activity of β-D-N(4)-Hydroxycytidine (NHC)\n(§2) The anti-rotaviral activity of NHC against swine rotaviruses was tested in a cell culture-based assay. MA-104 (Rhesus monkey kidney tissue) cells were cultured and harvested according to standard procedures. The harvested MA-104 cell suspension was seeded onto 96-well plates (Greiner CELLSTAR® black, Sigma-Aldrich® M0562) in 200 μl/well M6B8 medium with 5% FBS at a density of 3×10^4 cells/mL. After 4 days of culturing, the monolayers were washed and the cells were infected with rotavirus A by adding 100 μl/well of 3630 TCID50/mL Porcine rotavirus A strain of serotype G5P7 (ATCC, VR-892) or strain G9P7 (MAH Worthington, USA). […] Replication inhibition of the Rotavirus A strains by NHC was quantified using a mouse-anti-Rotavirus A strain-specific monoclonal antibody (Ingenasa, #1JF10) followed by FITC-fluorochrome conjugated goat-anti-mouse antibody (Nordic) and DAPI (Sigma Aldrich) nuclear staining in an immunofluorescent assay. The extent of immunofluorescence was quantified as relative fluorescence units (RFU) at 485 nm excitation and 528 nm emission using a Cytation 5 cell imaging multimode reader and Gen5 software version 3.10 (Agilent BioTek). […]"}, "[4]": {"tested_on": "bovine viral diarrhea virus (BVDV)", "conditions": "BVDV virus yield; read-out: EC90, virus yield assays; cited from earlier work"}, "[5]": {"tested_on": "swine influenza virus strain A/swine/Belgium/113/2013 (H3N2)", "experiment": "organism not typed", "format": "cell-based", "conditions": "MDCK, 24 h, read-out: EC50, replication of swine influenza virus reduced by half, H3N2 strain"}, "[6]": {"tested_on": "swine influenza virus strain A/swine/MN/A01483170/2014 (H1N1 pdm)", "experiment": "microbe, parasite or virus in culture", "format": "cell-based", "conditions": "H1N1, MDCK, in Sus scrofa, 24 h, read-out: EC50, replication of swine influenza virus reduced by half, H1N1pdm strain"}, "[7]": {"tested_on": "feline calicivirus (FCV) field strain 255", "experiment": "CrFK cell based antiviral activity against Feline Calicivirus (CPE, CellTiterGlo)", "conditions": "48 h, read-out: ED50 of NHC against Feline calicivirus", "protocol": "Example 2 CrFK Cell Based Antiviral Activity of NHC Against Feline Calicivirus (FCV)\nMonolayers of Crandell-Rees Feline Kidney (CrFK) cells grown in 96-well plates (Greiner Cat #655090) in 100 μl/well M6B8 medium supplemented with 5% FCS and 0.15% NaHCO3 at a density of 2×10^5 cells/ml were infected with feline calicivirus (FCV) field strain 255 at multiplicities of infection of 0.01 and 0.001. NHC was added in ⅓ serial dilutions to the infected cells to yield a test concentration range of from 10 μM to 0.000508 μM and cultures were incubated for up to 48 hours at 37° C. and 5% C02. The extent of viral replication was assessed by determining the degree of FCV-induced cytopathic effect (CPE) using the CellTiterGlo® Luminescent Cell Viability Assay (Promega Cat #G7571) by adding the reagent 1:1 (v/v) to the culture plates that have been equilibrated to room temperature for 30 minutes. Plates were incubated for 10 minutes at room temperature and subsequently read for luminescence in a Biotek Cytation5. The effective concentration of NHC that reduced FCV replication by 50% (EC50) was calculated in a 4-parameter nonlinear regression model using GraphPad Prism 8."}, "[8]": {"tested_on": "Porcine rotavirus A strain G9P7", "experiment": "Anti-porcine rotavirus immunofluorescent assay in MA-104 cells, strain G9P7", "format": "cell-based", "conditions": "MA104, 72 h, 3 days, immunofluorescence (FIG. 3b), read-out: EC50, replication of porcine rotavirus reduced by half, G9P7 strain", "protocol": "as §1, §2"}, "[9]": {"tested_on": "cytopathic bovine viral diarrhea virus (BVDV) RNA", "conditions": "dose-dependent inhibition of BVDV RNA production; read-out: 90% effective concentration (EC90), production of cytopathic BVDV RNA; cited from earlier work"}, "[10]": {"conditions": "FIPV strain 79-1146 infected CRFK cells, 96 hrs, CPE by CellTiterGlo, read-out: EC 50"}}, "note": "Like-named read-outs stand apart in the source and are kept apart here."}
{"smiles": "CC(C)C[C@H](NC(=O)OCc1ccccc1)C(=O)N[C@@H](CC1CCNC1=O)C(O)S(=O)(=O)O", "note": "(stereo partly shown) [GC-376]", "values": [{"measurement": "EC50", "setting": "[1]; [10]", "value": "1820 to 3000", "unit": "nM"}]}
{"smiles": "N#C[C@@]1(c2ccc3c(N)ncnn23)O[C@H](CO)[C@@H](O)[C@H]1O", "note": "[GS-441524]", "values": [{"measurement": "Inhibition of FIP virus (in words)", "setting": "[2]", "value": "strongly inhibit"}]}
{"smiles": "C[C@@]1(O)[C@H](O)[C@@H](CO)O[C@H]1n1ccc2c(N)ncnc21", "note": "[MK-0608]", "values": [{"measurement": "EC50", "setting": "[1]; [10]", "value": "> 30000", "unit": "nM"}]}
{"smiles": "O=c1nc(NO)ccn1[C@@H]1O[C@H](CO)[C@@H](O)[C@H]1O", "note": "[NHC, 1-((2R,3R,4S,5R)-3,4-dihydroxy-5-(hydroxymethyl)tetrahydrofuran-2-yl)-4-(hydroxyamino)pyrimidin-2(1H)-one]", "values": [{"measurement": "EC50", "setting": "[3]", "value": 2600, "unit": "nM"}, {"measurement": "EC90", "setting": "[4]", "value": 2000, "unit": "nM"}, {"measurement": "EC50", "setting": "[5]", "value": 1300, "unit": "nM"}, {"measurement": "EC50", "setting": "[6]", "value": 5200, "unit": "nM"}, {"measurement": "EC50", "setting": "[7]", "value": 3800, "unit": "nM"}, {"measurement": "EC50", "setting": "[1]; Alphacoronavirus 1, FIPV strain 79-1146 infected CRFK cells, 96 hrs, CPE by CellTiterGlo, read-out: EC 50", "value": "334 to 370", "unit": "nM"}, {"measurement": "Antiviral dose response against FIPV infected feline kidney cells (in words)", "setting": "[1]; FIG. 1, viral induced CPE", "value": "protective against viral induced CytoPathic Effect (CPE) in a dose dependent manner"}, {"measurement": "EC50", "setting": "[8]", "value": 1900, "unit": "nM"}, {"measurement": "EC90", "setting": "[9]", "value": 5400, "unit": "nM"}]}
{"smiles": "CCC(CC)COC(=O)[C@H](C)N[P@](=O)(OC[C@H]1O[C@@](C#N)(c2ccc3c(N)ncnn23)[C@H](O)[C@@H]1O)Oc1ccccc1", "note": "[Remdesivir]", "values": [{"measurement": "EC50", "setting": "[1]; Alphacoronavirus 1, CRFK, 96 h", "value": "735 to 970", "unit": "nM"}]}
